Measured values as given in patent publication US7598384B2, “Tetrahydroquinolinones and their use as antagonists of metabotropic glutamate receptors” (Merz Pharma GmbH & Co. KGAA, priority 2004, dated 2009).
Counter-ions that a name gives are not always drawn.

melting point | SMILES
149 to 150 °C | COc1ccc(Nc2ccc3c(n2)CC(C)(C)CC3=O)cc1 [Example 86, 2-(4-Methoxy-phenylamino)-7,7-dimethyl-7,8-dihydro-6H-quinolin-5-one]
221 to 222 °C | O=C1CC2(CCCCC2)Cc2nc(C34CC5CC(CC(C5)C3)C4)ccc21 (as salt: hydrochloride) [Example 27, 2-Adamantan-1-yl-7,7-pentamethylene-7,8-dihydro-6H-quinoline-5-one hydrochloride]
212 to 213 °C | CCCC1CCc2nc(-c3ccc(OC)cc3)ccc2C1=O (stereo not drawn) (as salt: hydrochloride) [Example 60, 2-(4-Methoxy-phenyl)-6-propyl-7,8-dihydro-6H-quinolin-5-one hydrochloride]
50 to 52 °C | CCCCSc1nc2c(cc1C#N)C(=O)CC(C)(C)C2 [Example 1, 2-Butylsulfanyl-7,7-dimethyl-5-oxo-5,6,7,8-tetrahydroquinoline-3-carbonitrile]
135 to 136 °C | CC(C)Sc1nc2c(cc1C#N)C(=O)CC(C)(C)C2 [Example 3, 2-Isopropylsulfanyl-7,7-dimethyl-5-oxo-5,6,7,8-tetrahydroquinoline-3-carbonitrile]
156 to 158 °C | CC(Nc1ccc2c(n1)CC1CCCCC1C2=O)c1ccccc1 (stereo not drawn) [Example 112, 2-(1-Phenyl-ethylamino)-6,7,8,9,9a,10-hexahydro-5aH-benzo[g]quinolin-5-one]
173 to 175 °C | CC1(C)CC(=O)c2ccc(CCc3ccccc3)nc2C1.Cl
99 to 100 °C | CC1(C)CC(=O)c2cc(C#N)c(N3CCCCC3)nc2C1 [Example 7, 7,7-Dimethyl-5-oxo-2-piperidin-1-yl-5,6,7,8-tetrahydro-quinoline-3-carbonitrile]
100 to 102 °C | CCCSc1nc2c(cc1C#N)C(=O)CC(C)(C)C2 [Example 2, 7,7-Dimethyl-5-oxo-2-propylsulfanyl-5,6,7,8-tetrahydroquinoline-3-carbonitrile]
163 to 164 °C | CC1(C)CC(=O)c2cc(C#N)c(NCc3ccccc3)nc2C1.Cl
164 to 166 °C | O=C1c2ccc(N3CCN(c4ccccc4)CC3)nc2CC2CCCCC12 (stereo not drawn) [Example 114, 2-(4-Phenyl-piperazin-1-yl)-6,7,8,9,9a,10-hexahydro-5aH-benzo[g]quinolin-5-one]
214 to 216 °C | O=C1c2ccc(Nc3ccccc3)nc2CC2CCCCC12 (stereo not drawn) [Example 111, 2-Phenylamino-6,7,8,9,9a,10-hexahydro-5aH-benzo[g]quinolin-5-one]
126 to 127 °C | CC1(C)CC(=O)c2ccc(OC3CCCCC3)nc2C1.Cl
203 to 204 °C | CC1(C)CCc2nc(C34CC5CC(CC(C5)C3)C4)ccc2C1=O (as salt: hydrochloride) [Example 41, 2-Adamantan-1-yl-6,6-dimethyl-7,8-dihydro-6H-quinolin-5-one hydrochloride]
202 to 204 °C | CC1(C)CC(=O)c2ccc(Cc3ccccc3)nc2C1.Cl
199 to 200 °C | CCCCCCc1ccc2c(n1)C(C)CC(C)(C)C2=O (stereo not drawn) (as salt: hydrochloride) [Example 55, 2-Hexyl-6,6,8-trimethyl-7,8-dihydro-6H-quinolin-5-one hydrochloride]
195 to 196 °C | CCCCCCc1ccc2c(n1)CC(c1ccc(N(C)C)cc1)CC2=O (stereo not drawn) (as salt: hydrochloride) [Example 32, 7-(4-Dimethylamino-phenyl)-2-hexyl-7,8-dihydro-6H-quinolin-5-one dihydrochloride]
233 to 234 °C | COc1cccc(-c2ccc3c(n2)CC2(CCCC2)CC3=O)c1 (as salt: hydrochloride) [Example 59, 2-(3-Methoxy-phenyl)-7,7-tetramethylene-7,8-dihydro-6H-quinolin-5-one hydrochloride]
87 to 88 °C | CC1(C)CC(=O)c2ccc(OCc3ccccc3)nc2C1.Cl
232 to 233 °C | CCC1CC(=O)c2ccc(-c3ccc(OC)cc3)nc2C1 (stereo not drawn) (as salt: hydrochloride) [Example 70, 7-Ethyl-2-(4-methoxy-phenyl)-7,8-dihydro-6H-quinolin-5-one hydrochloride]
214 to 216 °C | Cl.O=C1CCCc2nc(C34CC5CC(CC(C5)C3)C4)ccc21
85 to 86 °C | C=C(C)CSc1nc2c(cc1C#N)C(=O)CCC2 [Example 6, 2-(2-Methylallylsulfanyl)-5-oxo-5,6,7,8-tetrahydroquinoline-3-carbonitrile]
75 to 76 °C | CC(C)CSc1nc2c(cc1C#N)C(=O)CC(C)(C)C2 [Example 5, 2-Isobutylsulfanyl-7,7-dimethyl-5-oxo-5,6,7,8-tetrahydroquinoline-3-carbonitrile]
210 to 212 °C | CC1(C)CC(=O)c2ccc(C34CC5CC(CC(C5)C3)C4)nc2C1.Cl
157 to 158 °C | CC(C)COc1ccc2c(n1)CC(C)(C)CC2=O.Cl
215 to 216 °C | CC1(C)CC(=O)c2ccc(NCc3ccccc3)nc2C1.Cl
78 to 79 °C | C=C(C)CSc1nc2c(cc1C#N)C(=O)CC(C)(C)C2 [Example 4, 7,7-Dimethyl-2-(2-methylallysulfanyl)-5-oxo-5,6,7,8-tetrahydroquinoline-3-carbonitrile]
276 to 277 °C | O=C1CC2(CCCCC2)Cc2nc(OCc3ccccc3)ccc21 (as salt: hydrochloride) [Example 25, 2-Benzyloxy-7,7-pentamethylene-7,8-dihydro-6H-quinoline-5-one hydrochloride]
185 to 187 °C | Cl.O=C1CCCc2nc(Cc3ccccc3)ccc21
160 to 162 °C | COc1ccccc1CCc1ccc2c(n1)CCCC2=O.Cl
